Data on 26 molecules can be found in patent US8314112B2 (Novartis AG, priority 2008, dated 2012).

In the assay the target is T1, human ALK5 (kinase domain, ALK5 T204D) (Homo sapiens, UniProt P36897, T204D).
T1 construct: The kinase domain of human ALK5 (amino acids 200-503); made in house; host or cells: insect cells (baculovirus)
T1 sequence (P36897 200-503 T204D): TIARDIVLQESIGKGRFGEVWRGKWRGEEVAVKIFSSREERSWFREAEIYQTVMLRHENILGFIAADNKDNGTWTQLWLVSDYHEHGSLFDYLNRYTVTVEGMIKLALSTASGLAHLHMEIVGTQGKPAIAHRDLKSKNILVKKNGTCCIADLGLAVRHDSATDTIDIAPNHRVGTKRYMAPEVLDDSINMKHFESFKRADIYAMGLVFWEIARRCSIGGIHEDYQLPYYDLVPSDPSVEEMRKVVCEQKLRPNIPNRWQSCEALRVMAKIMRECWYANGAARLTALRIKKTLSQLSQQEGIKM
Description: ALK5 kinase assay ([33P] phosphate incorporation into casein). The format is biochemical. Particulars: casein substrate, 1 μM unlabelled ATP. The procedure: The kinase activity of ALK5 is assessed by measuring radiolabelled phosphate [33P] incorporation in to the generic substrate, casein. The kinase domain of human ALK5 (amino acids 200-503) is fused to an N-terminal histidine tag. The kinase activity of ALK5 is rendered constitutive via point mutation at amino acid 204 (threonine to aspartate modification, ALK5 T204D) and the kinase construct is engineered to be expressed from a baculovirus expression construct in insect cells. The purified, recombinantly-expressed histidine-tagged ALK5 T204D protein is dissolved at 5.4 mg/ml in 50 mM Tris-HCl pH 8.0, 150 mM NaCl, 5 mM DTT. ALK5 T204D is dissolved to 2.5 μg/ml in assay buffer (Assay buffer: 20 mM Tris-HCl pH 7.4, 10 mM MgCl2, 2 mM MnCl2) on the day of use.
Test compounds and reference compounds are dissolved in assay buffer without DTT containing 5% (v/v) DMSO. Stock solutions of test and reference compounds are diluted in assay buffer with DTT (1.25 mM) containing 4.5% (v/v) DMSO. 10 μl of test or reference compound are added to the appropriate wells of 96 well U-bottomed plate. Total enzyme activity is determined by measuring ALK5 T204D activity in the absence of ALK5 kinase inhibitor reference compounds. Non-specific binding (NSB) is determined by measuring the activity of ALK5 T204D in the presence of ALK5 kinase inhibitor reference compounds. 10 μl of dephosphorylated casein stock solution (dephosphorylated casein is dissolved in ddH2O at 20 mg/ml) is added per well (200 μg/well final assay concentration). 20 μl of ALK5 T204D (2.5 μg/ml solution) is added per well (50 ng/well final assay concentration). The plates are left to incubate at room temperature for 10 minutes.
10 μl of ATP mix is added to the well to initiate the reaction (0.66 nM [^33P]ATP/1 μM unlabelled ATP/well final assay concentration). The ATP mix is prepared as follows, unlabelled ATP (3 mM) is dissolved in ddH2O and pH adjusted to 7.4. The stock concentration of [^33P]ATP is 10 μCi/μl. The appropriate volume of [^33P]ATP is added to unlabelled ATP solution such that the final assay concentration per well is 0.1 μCi. Following addition of the ATP mix, the plates are incubated at room temperature for 50 minutes. The kinase reaction is terminated by the addition of 50 μL Stop Buffer (20 mM Tris-HCl pH 7.4, 10 mM EDTA).
75 μl/well from the reaction plate is transferred to a Multiscreen-IP plate (MultiScreen-IP plates are prepared by added 50 μL of 70% (v/v) ethanol per well and incubated for 5 minutes at room temperature. The ethanol is removed by aspiration via a MultiScreen HTS Vaccum Manifold unit (Millipore, Cat no: MSVMHT500). The plates are washed twice by adding 200 μl/well ddH2O). The MultiScreen-IP plate is incubated at room temperature for 30 minutes to allowing binding of casein to the plate. The MultiScreen-IP plates are washed three times by adding 200 μl/well 100 mM phosphoric acid solution and the gasket is carefully removed from the back of the MultiScreen-IP plate and the plate dried in the oven for 30 minutes. The MultiScreen-IP plate is backsealed, 50 μL of Microscint™20 is added, then the plates are topsealed and radiolabelled casein detected and quantified on a TopCount™ plate-reader using the ^33P scintillation protocol.
In general, IC50 refers to the point on the concentration scale where inhibition reaches its midpoint. A higher IC50 goes with lower potency. Consider `c1ccc(-c2nc(-c3cccnc3)c3cc[nH]c3n2)nc1` [Example 1, 4-Pyridin-3-yl-2-pyridin-2-yl-7H-pyrrolo[2,3-d]pyrimidine], for which 1180 nM corresponded to half-maximal inhibition (IC50). That is a single-digit micromolar value.

In the case of `Cc1cccc(-c2nc(-c3cccnc3)c3cc[nH]c3n2)n1` [Example 2, 2-(6-methyl-pyridin-2-yl)-4-pyridin-3-yl-7H-pyrrolo[2,3-d]pyrimidine], the midpoint of inhibition, the IC50, lay at 380 nM.

In turn, `COc1cncc(-c2nc(-c3cccc(C)n3)nc3[nH]ccc23)c1` [Example 3, 4-(5-Methoxy-pyridin-3-yl)-2-(6-methyl-pyridin-2-yl)-7H-pyrrolo[2,3-d]pyrimidine] showed a 50% inhibitory concentration (IC50) of 130 nM. In the case of `Cc1cccc(-c2nc(-c3cncc(-c4ccccc4)c3)c3cc[nH]c3n2)n1` [Example 4, 2-(6-Methyl-pyridin-2-yl)-4-(5-phenyl-pyridin-3-yl)-7H-pyrrolo[2,3-d]pyrimidine] it was 34 nM; in that of `COc1ccc(-c2cncc(-c3nc(-c4cccc(C)n4)nc4[nH]ccc34)c2)cc1` [Example 5, 4-[5-(4-Methoxy-phenyl)-pyridin-3-yl]-2-(6-methyl-pyridin-2-yl)-7H-pyrrolo[2,3-d]pyrimidine], 115 nM.

Take `COc1cccc(-c2cncc(-c3nc(-c4cccc(C)n4)nc4[nH]ccc34)c2)c1` [Example 6, 4-[5-(3-Methoxy-phenyl)-pyridin-3-yl]-2-(6-methyl-pyridin-2-yl)-7H-pyrrolo[2,3-d]pyrimidine]: the half-inhibitory concentration (IC50) came to 32 nM. In the case of `Cc1cccc(-c2nc(-c3cncc(-c4ccc(F)cc4)c3)c3cc[nH]c3n2)n1` [Example 7, 4-[5-(4-Fluoro-phenyl)-pyridin-3-yl]-2-(6-methyl-pyridin-2-yl)-7H-pyrrolo[2,3-d]pyrimidine] it was 45 nM; in that of `COc1ccccc1-c1cncc(-c2nc(-c3cccc(C)n3)nc3[nH]ccc23)c1` [Example 8, 4-[5-(2-Methoxy-phenyl)-pyridin-3-yl]-2-(6-methyl-pyridin-2-yl)-7H-pyrrolo[2,3-d]pyrimidine], 478 nM; in that of `Cc1cccc(-c2nc(-c3cncc(-c4ccc(C(=O)N5CCN(C)CC5)cc4)c3)c3cc[nH]c3n2)n1` [Example 9, (4-methyl-piperazin-1-yl)-(4-{5-[2-(6-methyl-pyridin-2-yl)-7H-pyrrolo[2,3-d]pyrimidin-4-yl]-pyridin-3-yl}-phenyl)-methanone], 13 nM.

Molecule `Cc1cccc(-c2nc(-c3cncc(-c4cccc(CN5CCN(C)CC5)c4)c3)c3cc[nH]c3n2)n1` [Example 10, 4-{5-[3-(4-Methyl-piperazin-1-ylmethyl)-phenyl]-pyridin-3-yl}-2-(6-methyl-pyridin-2-yl)-7H-pyrrolo[2,3-d]pyrimidine] came in with an IC50 of 50 nM.

In turn, `CCNC(=O)c1cncc(-c2nc(-c3cccc(C)n3)nc3[nH]ccc23)c1` [Example 11, N-Ethyl-5-[2-(6-methyl-pyridin-2-yl)-7H-pyrrolo[2,3-d]pyrimidin-4-yl]-nicotinamide] had an IC50 of 367 nM. In the case of `Cc1cccc(-c2nc(-c3cncc(C(=O)NCCN(C)C)c3)c3cc[nH]c3n2)n1` [Example 12, N-(2-Dimethylamino-ethyl)-5-[2-(6-methyl-pyridin-2-yl)-7H-pyrrolo[2,3-d]pyrimidin-4-yl]-nicotinamide] it was 345 nM; in that of `Cc1cccc(-c2nc(-c3cncc(C(=O)NCCCN(C)C)c3)c3cc[nH]c3n2)n1` [Example 13, N-(3-Dimethylamino-propyl)-5-[2-(6-methyl-pyridin-2-yl)-7H-pyrrolo[2,3-d]pyrimidin-4-yl]-nicotinamide], 177 nM. Molecule `Cc1cccc(-c2nc(-c3cncc(-c4ccc(N5CCN(C(C)C)CC5)cc4)c3)c3cc[nH]c3n2)n1` [Example 15, 4-{5-[4-(4-Isopropyl-piperazin-1-yl)-phenyl]-pyridin-3-yl}-2-(6-methyl-pyridin-2-yl)-7H-pyrrolo[2,3-d]pyrimidine] gave an IC50 of 160 nM.

The molecule `Cc1cccc(-c2nc(-c3cncc(Br)c3)c3cc[nH]c3n2)n1` [Example 16, 4-(5-bromo-pyridin-3-yl)-2-(6-methyl-pyridin-2-yl)-7H-pyrrolo[2,3-d]pyrimidine] came in with a 50% inhibitory concentration (IC50) of 1810 nM. The result for `Cc1cccc(-c2nc(-c3cncc(-c4ccc(N5CCCCC5)cc4)c3)c3cc[nH]c3n2)n1` [Example 17, 2-(6-Methyl-pyridin-2-yl)-4-[5-(4-piperidin-1-yl-phenyl)-pyridin-3-yl]-7H-pyrrolo[2,3-d]pyrimidine] reads 929 nM. Turning to `Cc1cccc(-c2nc(-c3cncc(-c4cccc(N5CCCC5)c4)c3)c3cc[nH]c3n2)n1` [Example 18, 2-(6-Methyl-pyridin-2-yl)-4-[5-(3-pyrrolidin-1-yl-phenyl)-pyridin-3-yl]-7H-pyrrolo[2,3-d]pyrimidine], 172 nM corresponded to half-maximal inhibition (IC50). This IC50 is about 5.4-fold lower than that of the molecule before. `Cc1cccc(-c2nc(-c3cncc(-c4ccc(CN5CCN(C)CC5)cc4)c3)c3cc[nH]c3n2)n1` [Example 20, 4-{5-[4-(4-Methyl-piperazin-1-ylmethyl)-phenyl]-pyridin-3-yl}-2-(6-methyl-pyridin-2-yl)-7H-pyrrolo[2,3-d]pyrimidine] had an IC50 of 45 nM. For `Cc1cccc(-c2nc(-c3cncc(-c4ccncc4)c3)c3cc[nH]c3n2)n1` [Example 21, 5-[2-(6-Methyl-pyridin-2-yl)-7H-pyrrolo[2,3-d]pyrimidin-4-yl]-[3,4′]bipyridinyl], the IC50 turned out to be 84 nM. The molecule `Cc1cccc(-c2nc(-c3cncc(-c4cccnc4)c3)c3cc[nH]c3n2)n1` [Example 22, 5-[2-(6-Methyl-pyridin-2-yl)-7H-pyrrolo[2,3-d]pyrimidin-4-yl]-[3,3′]bipyridinyl] returned an IC50 of 44 nM. In the case of `Cc1cccc(-c2nc(-c3cncc(-c4cccc(O)c4)c3)c3cc[nH]c3n2)n1` [Example 23, 3-{5-[2-(6-Methyl-pyridin-2-yl)-7H-pyrrolo[2,3-d]pyrimidin-4-yl]-pyridin-3-yl}-phenol] it was 14 nM; in that of `Cc1cccc(-c2nc(-c3cncc(-c4ccccc4F)c3)c3cc[nH]c3n2)n1` [Example 24, 4-[5-(2-Fluoro-phenyl)-pyridin-3-yl]-2-(6-methyl-pyridin-2-yl)-7H-pyrrolo[2,3-d]pyrimidine], 34 nM. As for `Cc1cccc(-c2nc(-c3cncc(C(=O)NCCCN4CCN(C)CC4)c3)c3cc[nH]c3n2)n1` [Example 25, N-[3-(4-Methyl-piperazin-1-yl)-propyl]-5-[2-(6-methyl-pyridin-2-yl)-7H-pyrrolo[2,3-d]pyrimidin-4-yl]-nicotinamide], inhibition was half-maximal at 223 nM (IC50). In turn, `Cc1cccc(-c2nc(-c3cncc(C(=O)NCCCO)c3)c3cc[nH]c3n2)n1` [Example 26, N-(3-Hydroxy-propyl)-5-[2-(6-methyl-pyridin-2-yl)-7H-pyrrolo[2,3-d]pyrimidin-4-yl]-nicotinamide] came in with an IC50 of 465 nM.

The molecule `CCC(=O)Nc1cncc(-c2nc(-c3cccc(C)n3)nc3[nH]ccc23)c1` [Example 27, N-{5-[2-(6-Methyl-pyridin-2-yl)-7H-pyrrolo[2,3-d]pyrimidin-4-yl]-pyridin-3-yl}-propionamide] displayed an IC50 of 723 nM. This IC50 is about 1.6-fold higher than that of the molecule before. In the case of `Cc1cccc(-c2nc(-c3cnc4ccccc4c3)c3cc[nH]c3n2)n1` [Example 28, 3-[2-(6-Methyl-pyridin-2-yl)-7H-pyrrolo[2,3-d]pyrimidin-4-yl]-quinoline], the IC50 worked out at 184 nM.
